{"source": "paper PMC5218480", "about": "(PLoS ONE, 2017)", "system": "MV-4-11 cells", "test": "Gene expression microarray analysis (Affymetrix PrimeView) and GSEA", "format": "cell-based, human", "set-up": "RFU PODN (11730768_x_at) / Fold change /veh PODN (11730768_x_at) / RFU LINC00158 (11744669_a_at) / Fold change /veh LINC00158 (11744669_a_at) / RFU DUSP10 (11751237_a_at) / Fold change /veh DUSP10 (11751237_a_at) / RFU ID3 (11757404_x_at) / Fold change /veh ID3 (11757404_x_at) / RFU PLEKHG5 (11737974_s_at) / Fold change /veh PLEKHG5 (11737974_s_at) / RFU LRRC4B (11730491_at) / Fold change /veh LRRC4B (11730491_at) / RFU GIMAP4 (11747438_a_at) / Fold change /veh GIMAP4 (11747438_a_at) / RFU KRT8 (11758183_x_at) / Fold change /veh KRT8 (11758183_x_at) / RFU CNN1 (11734310_a_at) / Fold change /veh CNN1 (11734310_a_at) / RFU VPS37D (11726825_at) / Fold change /veh VPS37D (11726825_at) / RFU C10orf10 (11716522_x_at) / Fold change /veh C10orf10 (11716522_x_at) / RFU KIR2DL2 /// KIR2DL4 /// KIR2DL5A /// KIR2DL5B /// KIR2DS1 /// KIR2DS2 /// KIR2DS3 /// KIR2DS4 /// KIR3DL3 /// KIR3DL3 /// KIR3DS1 (11738374_at) / Fold change /veh KIR2DL2 /// KIR2DL4 /// KIR2DL5A /// KIR2DL5B /// KIR2DS1 /// KIR2DS2 /// KIR2DS3 /// KIR2DS4 /// KIR3DL3 /// KIR3DL3 /// KIR3DS1 (11738374_at) / RFU C1QL1 (11718748_at) / Fold change /veh C1QL1 (11718748_at) / RFU TMPRSS4 (11747572_a_at) / Fold change /veh TMPRSS4 (11747572_a_at) / RFU HAMP (11756126_x_at) / Fold change /veh HAMP (11756126_x_at) / RFU RNFT2 (11725882_a_at) / Fold change /veh RNFT2 (11725882_a_at) / RFU NR4A2 (11747474_a_at) / Fold change /veh NR4A2 (11747474_a_at) / RFU ABCC12 (11746883_a_at) / Fold change /veh ABCC12 (11746883_a_at) / RFU TMEM136 (11760407_x_at) / Fold change /veh TMEM136 (11760407_x_at) / RFU CLDN22 /// WWC2 (11732394_at) / Fold change /veh CLDN22 /// WWC2 (11732394_at) / RFU HLA-DPB1 (11760878_x_at) / Fold change /veh HLA-DPB1 (11760878_x_at) / RFU SPINT1 (11716480_a_at) / Fold change /veh SPINT1 (11716480_a_at) / RFU GAP43 (11754022_s_at) / Fold change /veh GAP43 (11754022_s_at) / RFU A4GNT (11735810_at) / Fold change /veh A4GNT (11735810_at) / RFU PRB3 (11715151_x_at) / Fold change /veh PRB3 (11715151_x_at) / RFU TUBB4B (11761932_at) / Fold change /veh TUBB4B (11761932_at) / RFU CAPN14 (11732068_a_at) / Fold change /veh CAPN14 (11732068_a_at) / RFU TMCC2 (11721928_a_at) / Fold change /veh TMCC2 (11721928_a_at) / RFU IRGQ (11745062_a_at) / Fold change /veh IRGQ (11745062_a_at) / RFU FAM174B (11720279_a_at) / Fold change /veh FAM174B (11720279_a_at) / RFU TMPRSS4 (11748680_a_at) / Fold change /veh TMPRSS4 (11748680_a_at) / RFU FAM212B (11763350_a_at) / Fold change /veh FAM212B (11763350_a_at) / RFU PLEKHG5 (11743358_a_at) / Fold change /veh PLEKHG5 (11743358_a_at) / RFU ZSCAN30 (11745921_a_at) / Fold change /veh ZSCAN30 (11745921_a_at) / RFU CMKLR1 (11741424_a_at) / Fold change /veh CMKLR1 (11741424_a_at) / RFU LOC101060620 /// MAPK8IP1 (11723275_at) / Fold change /veh LOC101060620 /// MAPK8IP1 (11723275_at) / RFU SPTSSB (11747773_x_at) / Fold change /veh SPTSSB (11747773_x_at) / RFU PRSS12 (11739890_at) / Fold change /veh PRSS12 (11739890_at) / RFU BIN1 (11741810_x_at) / Fold change /veh BIN1 (11741810_x_at) / RFU WNT11 (11732464_a_at) / Fold change /veh WNT11 (11732464_a_at) / RFU C10orf10 (11716521_a_at) / Fold change /veh C10orf10 (11716521_a_at) / RFU C5orf56 (11738089_at) / Fold change /veh C5orf56 (11738089_at) / RFU CYB561 (11721691_x_at) / Fold change /veh CYB561 (11721691_x_at) / RFU ANKRD19P (11752326_a_at) / Fold change /veh ANKRD19P (11752326_a_at) / RFU OR2T12 /// OR2T33 /// OR2T8 (11738714_s_at) / Fold change /veh OR2T12 /// OR2T33 /// OR2T8 (11738714_s_at) / RFU VCAN (11748164_a_at) / Fold change /veh VCAN (11748164_a_at) / RFU JSRP1 (11732532_at) / Fold change /veh JSRP1 (11732532_at) / RFU KRTAP10-11 (11738290_x_at) / Fold change /veh KRTAP10-11 (11738290_x_at) / RFU MYO3A (11730013_a_at) / Fold change /veh MYO3A (11730013_a_at) / RFU EBF3 (11725865_a_at) / Fold change /veh EBF3 (11725865_a_at) / RFU CAMK2N1 (11719241_x_at) / Fold change /veh CAMK2N1 (11719241_x_at) / RFU C5orf56 (11738088_a_at) / Fold change /veh C5orf56 (11738088_a_at) / RFU OLFML3 (11715873_a_at) / Fold change /veh OLFML3 (11715873_a_at) / RFU LOC100653217 /// NTM (11731650_a_at) / Fold change /veh LOC100653217 /// NTM (11731650_a_at) / RFU MAPK11 (11762145_a_at) / Fold change /veh MAPK11 (11762145_a_at) / RFU FIZ1 (11724087_x_at) / Fold change /veh FIZ1 (11724087_x_at) / RFU OASL (11726364_x_at) / Fold change /veh OASL (11726364_x_at) / RFU SOX15 (11748057_x_at) / Fold change /veh SOX15 (11748057_x_at) / RFU CD79A (11719716_a_at) / Fold change /veh CD79A (11719716_a_at) / RFU HIST1H1D (11736915_at) / Fold change /veh HIST1H1D (11736915_at) / RFU CASKIN2 (11723855_a_at) / Fold change /veh CASKIN2 (11723855_a_at) / RFU LOC730098 (11760151_x_at) / Fold change /veh LOC730098 (11760151_x_at) / RFU OR4N2 (11742367_at) / Fold change /veh OR4N2 (11742367_at) / RFU PRRT2 (11749266_a_at) / Fold change /veh PRRT2 (11749266_a_at) / RFU SNX32 (11753110_a_at) / Fold change /veh SNX32 (11753110_a_at) / RFU CDHR5 (11726645_a_at) / Fold change /veh CDHR5 (11726645_a_at) / RFU RCAN1 (11760418_a_at) / Fold change /veh RCAN1 (11760418_a_at) / RFU FAM167A (11723789_a_at) / Fold change /veh FAM167A (11723789_a_at) / RFU FAM26E (11764081_at) / Fold change /veh FAM26E (11764081_at) / RFU ISYNA1 (11749810_s_at) / Fold change /veh ISYNA1 (11749810_s_at) / RFU ACY1 (11761880_at) / Fold change /veh ACY1 (11761880_at) / RFU 11764098_at / Fold change /veh 11764098_at / RFU SAMD14 (11745864_x_at) / Fold change /veh SAMD14 (11745864_x_at) / RFU NPB (11741838_a_at) / Fold change /veh NPB (11741838_a_at) / RFU TMPRSS6 (11731388_a_at) / Fold change /veh TMPRSS6 (11731388_a_at) / RFU KRTAP10-2 (11738614_at) / Fold change /veh KRTAP10-2 (11738614_at) / RFU ARHGAP8 /// PRR5-ARHGAP8 (11727945_x_at) / Fold change /veh ARHGAP8 /// PRR5-ARHGAP8 (11727945_x_at) / RFU KRTAP5-7 /// NADSYN1 (11734609_at) / Fold change /veh KRTAP5-7 /// NADSYN1 (11734609_at) / RFU RASL12 (11751679_a_at) / Fold change /veh RASL12 (11751679_a_at) / RFU CDKN2B (11736163_a_at) / Fold change /veh CDKN2B (11736163_a_at) / RFU PRF1 (11729649_at) / Fold change /veh PRF1 (11729649_at) / RFU, ZNF638 /// ZNF638-IT1 / Fold change vs veh, ZNF638 /// ZNF638-IT1 / RFU, PANK3 / Fold change vs veh, PANK3 / RFU, SH3YL1 / Fold change vs veh, SH3YL1 / RFU, ZEB2 / Fold change vs veh, ZEB2 / RFU, NRIP1 / Fold change vs veh, NRIP1 / RFU, PTTG1IP / Fold change vs veh, PTTG1IP / RFU, CAPN2 / Fold change vs veh, CAPN2 / RFU, MED14 / Fold change vs veh, MED14 / RFU, SNORA58 / Fold change vs veh, SNORA58 / RFU, C1orf63 / Fold change vs veh, C1orf63 / RFU, LRRFIP1 / Fold change vs veh, LRRFIP1 / RFU, NDUFAF7 / Fold change vs veh, NDUFAF7 / RFU, SLC12A2 / Fold change vs veh, SLC12A2 / RFU, IBTK / Fold change vs veh, IBTK / RFU, ESF1 / Fold change vs veh, ESF1 / Fold change vs veh, TMEM50B / RFU, TAOK1 / Fold change vs veh, TAOK1 / RFU, ACBD3 / Fold change vs veh, ACBD3 / RFU, TMA16 / Fold change vs veh, TMA16 / RFU, RWDD3 / Fold change vs veh, RWDD3 / RFU, BCAT1 / Fold change vs veh, BCAT1 / RFU, EDEM3 / Fold change vs veh, EDEM3 / RFU, TMEM33 / Fold change vs veh, TMEM33 / RFU, WDR75 / Fold change vs veh, WDR75 / RFU, AHCTF1 / Fold change vs veh, AHCTF1 / RFU, TFRC / Fold change vs veh, TFRC / RFU, ZDHHC17 / Fold change vs veh, ZDHHC17 / RFU, NOM1 / Fold change vs veh, NOM1 / RFU, ARL8B / Fold change vs veh, ARL8B / RFU, ZBTB11 / Fold change vs veh, ZBTB11 / RFU, TAMM41 / Fold change vs veh, TAMM41 / RFU, KIAA1704 /// LOC100996395 / Fold change vs veh, KIAA1704 /// LOC100996395 / RFU, ING1 / Fold change vs veh, ING1 / RFU, TRMT61B / Fold change vs veh, TRMT61B / RFU, FUBP3 / Fold change vs veh, FUBP3 / RFU, TP53 / Fold change vs veh, TP53 / RFU, TNKS2 / Fold change vs veh, TNKS2 / RFU, ZFP14 / Fold change vs veh, ZFP14 / RFU, ACTR2 / Fold change vs veh, ACTR2 / RFU, PPP3R1 / Fold change vs veh, PPP3R1 / RFU, PIK3R1 / Fold change vs veh, PIK3R1 / RFU, HNRNPA1 / Fold change vs veh, HNRNPA1 / RFU, RNF170 / Fold change vs veh, RNF170 / RFU, ZNF28 / Fold change vs veh, ZNF28 / RFU, RNGTT / Fold change vs veh, RNGTT / RFU, OGT / Fold change vs veh, OGT / RFU, BRD1 / Fold change vs veh, BRD1 / RFU, MARS / Fold change vs veh, MARS / RFU, ZNF655 / Fold change vs veh, ZNF655 / RFU, FAHD1 / Fold change vs veh, FAHD1 / RFU, BDP1 / Fold change vs veh, BDP1 / RFU, LRRCC1 / Fold change vs veh, LRRCC1 / RFU, ARID1A / Fold change vs veh, ARID1A / RFU, ZNF146 / Fold change vs veh, ZNF146 / RFU, ZNF330 / Fold change vs veh, ZNF330 / RFU, GPN3 / Fold change vs veh, GPN3 / RFU, C9orf123 / Fold change vs veh, C9orf123 / RFU, N4BP2L2 / Fold change vs veh, N4BP2L2 / RFU, ARFIP1 / Fold change vs veh, ARFIP1 / RFU, FAM179B / Fold change vs veh, FAM179B / RFU, BCL10 / Fold change vs veh, BCL10 / RFU, UHRF1BP1L / Fold change vs veh, UHRF1BP1L / RFU, BET1 / Fold change vs veh, BET1 / RFU, CNOT2 / Fold change vs veh, CNOT2 / RFU, ZNF268 / Fold change vs veh, ZNF268 / Fold change vs veh, ZNF507 / RFU, DGCR2 / Fold change vs veh, DGCR2 / RFU, WDSUB1 / Fold change vs veh, WDSUB1 / Fold change vs veh, HSP90B1 /// MIR3652 / RFU, ADSS / Fold change vs veh, ADSS / RFU, GK / Fold change vs veh, GK / RFU, ZNF148 / Fold change vs veh, ZNF148 / RFU, TAF9 / Fold change vs veh, TAF9 / RFU, SLC1A5 / Fold change vs veh, SLC1A5 / RFU, SLMO2 / Fold change vs veh, SLMO2 / RFU, ABCC4 / Fold change vs veh, ABCC4 / RFU, LOC101060439 /// RAP1B / Fold change vs veh, LOC101060439 /// RAP1B / RFU, RFX7 / Fold change vs veh, RFX7 / RFU, GTPBP10 / Fold change vs veh, GTPBP10 / RFU, CNEP1R1 / Fold change vs veh, CNEP1R1 / RFU, BIVM-ERCC5 /// ERCC5 / Fold change vs veh, BIVM-ERCC5 /// ERCC5 / RFU, ILF3 / Fold change vs veh, ILF3 / RFU 11762660_at / Fold change /veh 11762660_at / RFU VCAN (11757783_s_at) / Fold change /veh VCAN (11757783_s_at) / RFU DDX43 (11728927_at) / Fold change /veh DDX43 (11728927_at) / RFU KRT8 (11758188_x_at) / Fold change /veh KRT8 (11758188_x_at) / RFU NKD1 (11759106_at) / Fold change /veh NKD1 (11759106_at) / RFU SRD5A1 (11742802_a_at) / Fold change /veh SRD5A1 (11742802_a_at) / RFU TPSAB1 /// TPSB2 (11721975_s_at) / Fold change /veh TPSAB1 /// TPSB2 (11721975_s_at) / RFU GSTM3 (11746129_a_at) / Fold change /veh GSTM3 (11746129_a_at) / RFU IL23R (11737362_x_at) / Fold change /veh IL23R (11737362_x_at) / RFU TMEM51 (11727254_a_at) / Fold change /veh TMEM51 (11727254_a_at) / RFU PIWIL2 (11732686_x_at) / Fold change /veh PIWIL2 (11732686_x_at) / RFU ORM1 (11744905_x_at) / Fold change /veh ORM1 (11744905_x_at) / RFU CCDC152 (11743942_at) / Fold change /veh CCDC152 (11743942_at) / RFU ECM1 (11717891_a_at) / Fold change /veh ECM1 (11717891_a_at) / RFU IL23R (11748794_a_at) / Fold change /veh IL23R (11748794_a_at) / RFU TNFAIP8L3 (11732012_x_at) / Fold change /veh TNFAIP8L3 (11732012_x_at) / RFU MBOAT4 (11741988_at) / Fold change /veh MBOAT4 (11741988_at) / RFU 11764193_at / Fold change /veh 11764193_at / RFU TMEM53 (11763286_at) / Fold change /veh TMEM53 (11763286_at) / RFU MAGEB2 (11727129_at) / Fold change /veh MAGEB2 (11727129_at) / RFU TMEM200A (11744735_a_at) / Fold change /veh TMEM200A (11744735_a_at) / RFU CCDC152 (11751479_a_at) / Fold change /veh CCDC152 (11751479_a_at) / RFU FAM211A (11726209_a_at) / Fold change /veh FAM211A (11726209_a_at) / RFU RGS16 (11746705_a_at) / Fold change /veh RGS16 (11746705_a_at) / RFU VCAN (11755009_s_at) / Fold change /veh VCAN (11755009_s_at) / RFU RHOB (11743442_s_at) / Fold change /veh RHOB (11743442_s_at) / RFU RGS16 (11720943_a_at) / Fold change /veh RGS16 (11720943_a_at) / RFU RGS16 (11720944_at) / Fold change /veh RGS16 (11720944_at) / RFU, VPS4B / Fold change vs veh, VPS4B / RFU, CREB1 / Fold change vs veh, CREB1 / RFU, DNAJC13 / Fold change vs veh, DNAJC13 / RFU, GNAQ / Fold change vs veh, GNAQ / RFU, CDK5R1 / Fold change vs veh, CDK5R1 / RFU, ZRANB3 / Fold change vs veh, ZRANB3 / RFU, CUL4A / Fold change vs veh, CUL4A / RFU, CCNY / Fold change vs veh, CCNY / RFU, UFL1 / Fold change vs veh, UFL1 / RFU, COG3 / Fold change vs veh, COG3 / RFU, DIAPH2 / Fold change vs veh, DIAPH2 / RFU, SKA2 / Fold change vs veh, SKA2 / RFU, AFF3 / Fold change vs veh, AFF3 / RFU, LMF1 / Fold change vs veh, LMF1 / RFU, IPO11 / Fold change vs veh, IPO11 / RFU, DFFB / Fold change vs veh, DFFB / RFU, FOXP1 / Fold change vs veh, FOXP1 / RFU, CARD8 / Fold change vs veh, CARD8 / RFU, STRN3 / Fold change vs veh, STRN3 / RFU, ADK / Fold change vs veh, ADK / RFU, RASSF2 / Fold change vs veh, RASSF2 / RFU, WIPF1 / Fold change vs veh, WIPF1 / RFU, LARP1B / Fold change vs veh, LARP1B / RFU, RASA1 / Fold change vs veh, RASA1 / RFU, RB1 / Fold change vs veh, RB1 / RFU, PPFIA1 / Fold change vs veh, PPFIA1 / RFU, MAT2A / Fold change vs veh, MAT2A / RFU, CCT5 / Fold change vs veh, CCT5 / RFU, WDR92 / Fold change vs veh, WDR92 / RFU, CUX1 / Fold change vs veh, CUX1 / RFU, TTC7A / Fold change vs veh, TTC7A / RFU, TMEM135 / Fold change vs veh, TMEM135 / RFU, DEPTOR / Fold change vs veh, DEPTOR / RFU, CPM / Fold change vs veh, CPM / RFU, DNAJB6 / Fold change vs veh, DNAJB6 / RFU, CACNA2D3 / Fold change vs veh, CACNA2D3 / RFU, DTX4 / Fold change vs veh, DTX4 / RFU, TFCP2 / Fold change vs veh, TFCP2 / RFU, GMCL1 /// GMCL1P1 / Fold change vs veh, GMCL1 /// GMCL1P1 / RFU, AEBP2 / Fold change vs veh, AEBP2 / RFU, SNHG1 /// SNORD22 /// SNORD25 /// SNORD26 /// SNORD27 /// SNORD28 /// SNORD29 /// SNORD31 / Fold change vs veh, SNHG1 /// SNORD22 /// SNORD25 /// SNORD26 /// SNORD27 /// SNORD28 /// SNORD29 /// SNORD31 / Fold change (Aza/veh), C12orf56 (ProbeSet 11735607_a_at) / Fold change (ACY-1035/veh), C12orf56 (ProbeSet 11735607_a_at) / Fold change (Aza/veh), FGFR1OP (ProbeSet 11751329_s_at) / Fold change (ACY-1035/veh), FGFR1OP (ProbeSet 11751329_s_at) / Fold change (Aza/veh), VPS36 (ProbeSet 11739960_a_at) / Fold change (ACY-1035/veh), VPS36 (ProbeSet 11739960_a_at) / RFU SYPL1 (11715823_x_at) / Fold change /veh SYPL1 (11715823_x_at) / RFU IGFBP7 (11715501_s_at) / Fold change /veh IGFBP7 (11715501_s_at) / RFU REEP3 (11722064_at) / Fold change /veh REEP3 (11722064_at) / RFU IGLL1 (11728026_x_at) / Fold change /veh IGLL1 (11728026_x_at): dose or concentration left out as unconfirmed", "conditions": "MV-4-11 cells, 48 hours", "data": [{"compound": "Nc1ncn([C@@H]2O[C@H](CO)[C@@H](O)[C@H]2O)c(=O)n1", "note": "[azacitidine]", "values": [{"measurement": "RFU MBOAT4 (11741988_at)", "value": 11.61, "unit": "RFU"}]}]}
